Here are results for nine compounds from patent US6833445B2, “Guanidinylation, guanidinoglycosides, uses, and methods of assaying their activity” (The Regents of the University of California, priority 2000, dated 2004).

SMILES strings stand for the structures.

Assay [1] addresses HIV-1 Rev protein RNA recognition element (RRE). Briefly: Fluorescence anisotropy: displacement of fluorescein-labeled Rev peptide from the RRE in solution. The format is binding. Particulars: for increase in inhibitory activity upon guanidinylation relative to the parent compound: fluorescence anisotropy IC50, guanidinylated vs parent. The source says:
In a modification of the above assay, the solid support aspect of the above embodiment is removed. The biophysical characteristics of potential inhibitory test compounds can be detected by fluorescence anisotropy as depicted in FIG. 5. The RRE-bound fluorescent peptide has a slower Brownian tumbling motion relative to the free peptide in solution. Upon displacement of the fluorescently labeled Rev from the RRE by a competing inhibitor, a decrease in the anisotropy value is observed. The displacement of the labeled-Rev can be followed by monitoring the anisotropy at the emission wavelength of the Rev34-50-bound fluorophore.
The HIV-1 Rev-RRE interaction was used to examine the impact of guanidinylation upon RNA binding, and to probe the potential antiviral activity of these compounds. The binding of Rev to the RRE (Rev response element) is responsible for the export of unspliced and singly spliced HIV genomic RNA out of the host nucleus. This essential protein-RNA interaction remains an important, and nonutilized, therapeutic target. The high-affinity Rev binding site on the RRE has been localized to the purine-rich bulge. The binding of Rev to the RRE is governed by the arginine-rich fragment, Rev34-50. Key guanidinium groups make direct contacts with the RNA platform and are essential for the specific binding of Rev to the RRE. Fluorescence anisotropy has been employed to determine the affinity of the new derivatives to the RRE in solution. The RRE-bound fluorescent Rev peptide has a slower Brownian tumbling motion relative to the free peptide. Upon displacement of the fluorescein-labeled Rev peptide from the RRE by an inhibitor, a decrease in the anisotropy value is observed. Table 4 (column a) compares the IC50 values of the guanidinoglycosides to the aminoglycosides. Guanidinylation of kanamycin A, kanamycin B, and tobramycin results in a greater than 10-fold increase in inhibitory activity relative to the parent compounds. A 5-fold increase in activity is observed upon guanidinylation of neomycin B and paromomycin.

The target is the same in assay [2]. Briefly: Solid-phase assay: displacement of fluorescent Rev peptide from immobilized RRE. The settings on record: for (e) Ratio (c)/(b): IC50 with polyA-polyU divided by IC50 without competitor, proportional to RRE selectivity; for change of ratio (c)/(b) upon guanidinylation: decrease = more selective for the RRE than amino precursor. The format is binding. An excerpt: To facilitate the discovery of active guanidinoglycosides an assay system using HIV-1 response elements can be used. For example, RRE-specific binders as well as TAR specific binders can be identified using the methods of the present invention. The present invention provides a rapid screening assay and method depicted in FIG. 4. The Rev-RRE assay relies on the release of a fluorescently tagged Rev fragment from an immobilized RRE-Rev complex and can be performed under various stringency levels. The assay can be conducted in the presence of competing RNA molecules, other potential cellular targets, or cellular extracts. Only high affinity ligands can effectively compete with the bound Rev34-50 peptide (Kd is approximately 1 nM), thus releasing the highly fluorescent molecules into solution. Non-selective binders will be scavenged by competitor molecules present in solution.
In one embodiment, the present invention provides an assay for identifying a test compound which binds to RRE. The assay includes an immobilized RRE, a detectably labeled Rev, and a test compound. A test compound that liberates the labeled Rev due to competitive binding to the RRE results in an increase in the labeled Rev in the supernatant of the assay. Accordingly, following incubation of immobilized RRE, a labeled Rev, and a test compound, the supernatant is measured and the amount of label in the supernatant is determined. The amount of label in the supernatant is indicative of the degree or ability of the test compound to bind to the RRE or REV polypeptide. By comparing the amount of label in the supernatant with the amount in a control or standard sample, one can identify a test compound which effectively competes with the Rev for binding to RRE. […] In the depicted embodiment of FIG. 4 the ternary complex containing a fluorescently tagged Rev peptide bound to an immobilized RRE is incubated with the test compound (e.g., a potential competitor, binding agent or inhibitor)under conditions and in the presence of competing RNA molecules n a microcentrifuge filter tube. After incubation, the mixture is filtered and the filtrate is illuminated. In the presence of a strong and selective RRE binder, the fluorescently labeled peptide will be released from the beads into solution and the filtrate will become fluorescent.
The basic principle of the assay systems used to identify compounds that inhibit binding of Rev to RRE or compounds that interact with RRE involves preparing a reaction mixture containing the target (e.g., RRE) and the binding partner (e.g., labeled-Rev) under conditions and for a time sufficient to allow the two to interact and bind, thus form a complex. In order to test a compound for inhibitory activity, the reaction mixture is prepared in the presence and absence of the test compound. The test compound can be initially included in the reaction mixture, or can be added at a time subsequent to the addition of the RRE and its binding partner, Rev. Control reaction mixtures are incubated without the test compound or with a placebo. The presence of labeled-Rev that is not bound to RRE over that amount found in a control or standard sample is indicative of a test compound that competes with Rev for binding to RRE.
A novel solid-phase assembly was used to evaluate the RNA specificity of the new derivatives. This assay relies on the displacement of a fluorescent Rev peptide from a solid-phase immobilized RRE and can be performed in the presence of competing nucleic acids. Table 4 (columns b-d) summarizes the IC50 values determined by this method. By comparing IC50 values measured in the absence of any competitors to the values measured in the presence of DNA or RNA, a quantitative measure for the relative selectivity of each ligand can be made. Aminoglycosides have a substantial affinity to poly A-poly U duplex RNA (compare column b to c, Table 4). […] For neomycin, this ratio increases upon guanidinylation, indicating a lower RRE selectivity. […]

Assay [3] relates to HIV-1. Briefly: Inhibition of viral replication in HIV-1-infected CD4+ HeLa cells (plaque formation). The format is cell-based. The method, then: By converting aminoglycosides into guanidinoglycosides the biological activities of these glycosides were dramatically affected. Neomycin B was reported to be an in vivo and in vitro inhibitor of Rev-RRE binding, as well as an effective inhibitor of HIV-1 replication in vivo. The ability of guanidinoneomycin B and guanidinotobramycin to inhibit viral replication in HIV-1-infected CD4+ HeLa cells was measured and compared to the antiviral activities of neomycin B and tobramycin (FIG. 6). As evidenced by the dose-dependent decrease in plaque formation, the guanidinoglycosides inhibit HIV replication with activities approximately 100 times higher than their amino precursors (FIG. 6). The antiviral activity of the guanidinoglycosides may be related to their ability to bind the RRE with high affinity and specificity, thus preventing the HIV-1 Rev-RRE interaction and viral replication.

[4] abbreviates: Fluorescence Anisotropy (Table 4), read-out: IC50 (a) Anisotrophy.
Where [5] appears, read: Fluorescence Anisotropy, amino form of the glycoside (Table 3), read-out: IC50 (uM) amino form.
Where [6] appears, read: 15 ug/mL plasmid DNA (pGEM), read-out: IC50 (d) Solid-Phase + DNA.
[7] abbreviates: 15 ug/mL polyA-polyU duplex RNA, read-out: IC50 (c) Solid-Phase + poly A polyU.
Where [8] appears, read: Solid-phase, no competitor (Table 4), read-out: IC50 (b) Solid-Phase.
Where [9] appears, read: Fluorescence Anisotropy, guanidino form of the glycoside (Table 3), read-out: IC50 (uM) guandino form.

One may read the IC50 as the concentration that inhibits the measured activity by half. Take `NC[C@H]1O[C@H](O[C@H]2[C@H](O)[C@@H](O[C@H]3O[C@H](CO)[C@@H](O)[C@H](N)[C@H]3O)[C@H](N)C[C@@H]2N)[C@H](O)[C@@H](O)[C@@H]1O` [KanamycinA, Kanamycin A]: the IC50 came to 750 µM in assay [1] (setting [4]); 100 µM in assay [1] (setting [5]); 750 µM in assay [2] (setting [6]); 1300 µM in assay [2] (setting [7]); 700 µM in assay [2] (setting [8]). For the same compound, the “(e) Ratio (c)/(b)” value in assay [2] came out at 1.9. Also, in assay [2], the “change of ratio (c)/(b) upon guanidinylation” value (“change of ratio” below) was “decreases”.
On to `NC[C@H]1O[C@H](O[C@H]2[C@H](O)[C@@H](O[C@H]3O[C@H](CO)[C@@H](O)[C@H](N)[C@H]3O)[C@H](N)C[C@@H]2N)[C@H](N)[C@@H](O)[C@@H]1O` [KanamycinB, Kanamycin B], for which the IC50 amounted to 80 µM in assay [1] (setting [4]), 90 µM in assay [2] (setting [6]), 160 µM in assay [2] (setting [7]) and 80 µM in assay [2] (setting [8]). Moreover, the “(e) Ratio (c)/(b)” value in assay [2] was determined as 2.0. Besides, the “change of ratio” value in assay [2] is reported as “decreases”.
`NC[C@@H]1O[C@H](O[C@H]2[C@@H](O)[C@H](O[C@@H]3[C@@H](O)[C@H](N)C[C@H](N)[C@H]3O[C@H]3O[C@H](CN)[C@@H](O)[C@H](O)[C@H]3N)O[C@@H]2CO)[C@H](N)[C@@H](O)[C@@H]1O` [Neomycin B, Neomycin]: the IC50 in assay [1] (setting [4]) stood at 6 µM; in assay [1] (setting [5]), 1 µM; in assay [2] (setting [6]) it was 8 µM; in assay [2] (setting [7]) it was 16 µM; in assay [2] (setting [8]), 6 µM. Further, in assay [1], the “increase in inhibitory activity upon guanidinylation relative to the parent compound” value was 5 fold. Further, the “(e) Ratio (c)/(b)” value in assay [2] is 2.7. Also, the “change of ratio” value in assay [2] was “increases”.
As for `NC[C@@H]1O[C@H](O[C@H]2[C@@H](O)[C@H](O[C@@H]3[C@@H](O)[C@H](N)C[C@H](N)[C@H]3O[C@H]3O[C@H](CO)[C@@H](O)[C@H](O)[C@H]3N)O[C@@H]2CO)[C@H](N)[C@@H](O)[C@@H]1O` [Paromomycin], the IC50 was found to be 65 µM in assay [1] (setting [4]), 60 µM in assay [2] (setting [6]), 110 µM in assay [2] (setting [7]) and 55 µM in assay [2] (setting [8]). Moreover, the “increase in inhibitory activity upon guanidinylation relative to the parent compound” value in assay [1] is 5 fold. In addition, the “(e) Ratio (c)/(b)” value in assay [2] is 2.0. The “change of ratio” value in assay [2] is “decreases”.
In the case of `NC[C@H]1O[C@H](O[C@H]2[C@H](O)[C@@H](O[C@H]3O[C@H](CO)[C@@H](O)[C@H](N)[C@H]3O)[C@H](N)C[C@@H]2N)[C@H](N)C[C@@H]1O` [Tobramycin], the IC50 is 44 µM in assay [1] (setting [4]); 10 µM in assay [1] (setting [5]); 50 µM in assay [2] (setting [6]); 140 µM in assay [2] (setting [7]); 55 µM in assay [2] (Solid Phase Assay, competing DNA (Table 2), read-out: IC50 with DNA); 1.1 µM in assay [2] (Solid Phase Assay, competing tRNA (Table 2), read-out: IC50 with tRNA). For the same compound, the IC50 in assay [2] (Solid Phase Assay, no competitor (Table 2), read-out: IC50) is 50 µM; in assay [2] (setting [8]) it was 45 µM. The “(e) Ratio (c)/(b)” value in assay [2] was found to be 3.1. Besides, the “change of ratio” value in assay [2] was “decreases”. Also, in assay [2] (solid phase assay, competing DNA / tRNA), the “activity in the presence of competing nucleic acids” value is reported as “significantly lower activity in the presence of tRNA”.
In the case of `NC(N)=NC[C@@H]1O[C@H](O[C@H]2[C@H](O)[C@@H](O[C@H]3O[C@@H](CO)[C@H](O)[C@@H](N=C(N)N)[C@@H]3O)[C@H](N=C(N)N)C[C@@H]2N=C(N)N)[C@@H](O)[C@H](O)[C@H]1O` [guanidino-kanamycinA, Guanidino Kanamycin A], the 50% inhibitory concentration (IC50) in assay [1] (setting [4]) was 65 µM; in assay [1] (setting [9]), 8 µM; in assay [2] (setting [6]) it was 55 µM; in assay [2] (setting [7]) it was 60 µM; in assay [2] (setting [8]), 50 µM. In assay [2], the “(e) Ratio (c)/(b)” value is on record as 1.2.
With `N=C(N)NCC1OC(OC2C(NC(=N)N)CC(NC(=N)N)C(OC3OC(CO)C(O)C(NC(=N)N)C3O)C2O)C(NC(=N)N)C(O)C1O` (centres unmarked) [guanidino-kanamycinB, Guanidino Kanamycin B], the IC50 in assay [1] (setting [4]) is 3.5 µM; in assay [2] (setting [6]) it was 3.5 µM; in assay [2] (setting [7]), 4.7 µM; in assay [2] (setting [8]) it was 3 µM. Moreover, the “(e) Ratio (c)/(b)” value in assay [2] amounted to 1.6.
For the compound `N=C(N)NC[C@@H]1O[C@H](O[C@H]2[C@@H](O)[C@H](O[C@@H]3[C@@H](O)[C@H](NC(=N)N)C[C@H](NC(=N)N)[C@H]3O[C@H]3O[C@H](CNC(=N)N)[C@@H](O)[C@H](O)[C@H]3NC(=N)N)O[C@@H]2CO)[C@H](NC(=N)N)[C@@H](O)[C@@H]1O` [guanidino-neomycin B, Guanidino Neomycin], the IC50 is 1.3 µM in assay [1] (setting [4]); 0.2 µM in assay [1] (setting [9]); 0.9 µM in assay [2] (setting [6]); 4.5 µM in assay [2] (setting [7]); 0.8 µM in assay [2] (setting [8]). Further, the “(e) Ratio (c)/(b)” value in assay [2] is recorded as 5.6. Besides, the “inhibition of HIV replication, activity relative to parent aminoglycoside” value in assay [3] is “approximately 100 times”.
For the compound `N=C(N)NCC1OC(OC2C(CO)OC(OC3C(O)C(NC(=N)N)CC(NC(=N)N)C3OC3OC(CO)C(O)C(O)C3NC(=N)N)C2O)C(NC(=N)N)C(O)C1O` (centres unmarked) [guanidino-paromomycin, Guanidino Paromomycin], the IC50 in assay [1] (setting [4]) worked out at 18 µM; in assay [2] (setting [6]) it was 16 µM; in assay [2] (setting [7]), 20 µM; in assay [2] (setting [8]), 14 µM. The “(e) Ratio (c)/(b)” value in assay [2] is reported as 1.4.
